Experimental findings from US10414759B2, “Phenylthiazoles and uses thereof” (Purdue Research Foundation, priority 2017, dated 2019) are described below.

In general, melting point refers to the temperature, or range, at which the solid turns liquid. What is called solubility is the concentration that dissolves in the medium under given conditions. Higher therefore signals much dissolved substance. For orientation: MBC means the smallest concentration meeting the test's criterion for killing.

Values after ≈ are worked out from the molar mass of the structure shown. Where two headings read alike, the source gives them in different places.

For one data set, the system named is Caco-2 cells. Description: Caco-2 bidirectional permeability assay. To be noted: for Mean A→B Papp: Caco-2, apical to basolateral. On the technique in general: Passage across Caco-2 layers is used to estimate intestinal permeability.
Data set [1] can be described thus: PBS solubility screen (turbidometric). The class given is physicochemical. The procedure: The solutions were diluted 100-fold into PBS in a 96-well plate and mixed. The absorbance of the PBS-containing plate was measured prior to addition of the test agents to determine the background absorbance. After 2 h, the presence of precipitate was detected by turbidity (absorbance at 540 nm). […] The solubility limit is reported as the highest experimental concentration with no evidence of turbidity.

Another data set has as its system MRSA (2658 RCMB). Description: MIC against MRSA (2658 RCMB), broth dilution. The class given is cell-based, Staphylococcus aureus. To be noted: MRSA (2658 RCMB); for MIC: Staphylococcus aureus. The procedure:
Bacteria were cultured in cation-adjusted Mueller Hinton broth in a 96-well plate. Compounds, using triplicate samples, were added to the plate and serially diluted. […] Plates were visually inspected and the MIC was categorized as the concentration at which no visible growth of bacteria was observed. The average of triplicate MIC determinations is reported.
(§1) A bacterial solution equivalent to 0.5 McFarland standard was prepared and diluted in cation-adjusted Mueller-Hinton broth (CAMHB) to achieve a bacterial concentration of about 5×10^5 CFU/mL and seeded in 96-well plates. Enterococcus faecium was diluted in brain heart infusion broth. Enterococcus faecalis, Streptococcus pneumonia and Listeria monocytogenes were diluted in tryptone soya broth (TSB).
(In broth dilution the organism is exposed to a series of concentrations in liquid medium.)

A short description of data set [2]: Metabolic stability in human liver microsomes. The class given is in vitro ADME. To be noted: pH 7.4, human liver microsomes. The procedure: The tested compounds were incubated in duplicate with human liver microsomes at 37° C. The reaction contained microsomal protein in 100 mM potassium phosphate, 2 mM NADPH, 3 mM MgCl2, pH 7.4. A control was run for each test agent omitting NADPH to detect NADPH-free degradation. At 0, 10, 20, 40, and 60 minutes, an aliquot was removed from each experimental and control reaction and mixed with an equal volume of ice-cold Stop Solution (methanol containing haloperidol, diclofenac, or other internal standard). Stopped reactions are incubated at least ten minutes at −20° C., and an additional volume of water was added. The samples were centrifuged to remove precipitated protein, and the supernatants were analyzed by LC/MS/MS to quantitate the remaining parent. Data are converted to % remaining by dividing by the time zero concentration value. Data are fit to a first-order decay model to determine half-life. Intrinsic clearance is calculated from the half-life and the protein concentrations: CLint=ln(2)/(T1/2 [microsomal protein]).

The subject of data set [3] is Enterococcus faecium ATCC 700221 (VRE). Description: MIC/MBC Gram-positive pathogens (Table 9). The class given is cell-based. To be noted: Table 9; Enterococcus faecium ATCC 700221 (VRE); read-out: MIC. The protocol: (§2) The minimum inhibitory concentration (MIC) of tested compounds and control antibiotics were determined using the broth microdilution method in accordance with the recommendations contained in the Clinical and Laboratory Standards Institute guidelines, against methicillin-sensitive (ATCC 6538 and NRS107), methicillin-resistant (MRSA), and vancomycin-resistant (VRSA) Staphylococcus aureus, Staphylococcus epidermidis, Enterococcus faecalis, E. faecium, Listeria monocytogenes, and Streptococcus pneumoniae clinical isolates. A bacterial solution equivalent to 0.5 McFarland standard was prepared and diluted in cation-adjusted Mueller-Hinton broth (CAMHB) to achieve a bacterial concentration of about 5×10^5 CFU/mL and seeded in 96-well plates. Enterococcus faecium was diluted in brain heart infusion broth. Enterococcus faecalis, Streptococcus pneumonia and Listeria monocytogenes were diluted in tryptone soya broth (TSB). Compounds and control drugs were added in the first row of 96-well plates and serially diluted (to achieve a concentration gradient ranging from 128 to 1 μg/mL). Plates were then incubated aerobically at 37° C. for at least 18 hours. The minimum bactericidal concentration (MBC) of the active compounds was tested by plating 5 μL from wells with no growth onto Tryptic soy agar (TSA) plates.

For the next data set, the system named is S. aureus NRS107. In words: MIC/MBC S. aureus strains (Table 8). The class given is cell-based, Staphylococcus aureus. The protocol: as §1
For data set [4], the system named is Enterococcus faecalis ATCC 51299 (VRE). In words: MIC/MBC Gram-positive pathogens (Table 9). In kind it is cell-based. To be noted: Table 9, Enterococcus faecalis ATCC 51299 (VRE). The procedure:
as §1

The test system of data set [5] is Methicillin-resistant Streptococcus pneumoniae ATCC 700677. In words: MIC/MBC Gram-positive pathogens (Table 9). The class given is cell-based. To be noted: ATCC700677. The procedure: as §1
For data set [6], the system named is Listeria monocytogenes ATCC 19111. Description: MIC/MBC Gram-positive pathogens (Table 9). In kind it is cell-based. The protocol: as §1
Data set [7] concerns Cephalosporin-resistant Streptococcus pneumoniae ATCC 51916. Description: MIC/MBC Gram-positive pathogens (Table 9). The class given is cell-based. To be noted: ATCC51916. The procedure:
as §1

Data set [8] has as its system Methicillin-resistant Staphylococcus epidermidis NRS101. Description: MIC/MBC Gram-positive pathogens (Table 9). In kind it is cell-based. The procedure: as §1
In another data set the test system is MRSA NRS385. Description: MIC/MBC S. aureus strains (Table 8). The class given is cell-based. To be noted: Staphylococcus aureus. The procedure:
as §1

The next data set concerns MRSA NRS123 (USA400). In words: MIC/MBC S. aureus strains (Table 8). The class given is cell-based. To be noted: Staphylococcus aureus. The protocol:
as §1

The subject of the next data set is S. aureus ATCC 6538. In words: MIC/MBC S. aureus strains (Table 8). To be noted: Staphylococcus aureus, ATCC6538. The class given is cell-based. The protocol:
as §1

In another data set the test system is MRSA NRS119. Description: MIC/MBC S. aureus strains (Table 8). In kind it is cell-based. To be noted: Staphylococcus aureus. The procedure:
as §1

For another data set, the system named is MRSA NRS384 (USA300). Description: MIC/MBC S. aureus strains (Table 8). The class given is cell-based. To be noted: Staphylococcus aureus. The protocol: as §1
The next data set has as its system MRSA NRS386. In words: MIC/MBC S. aureus strains (Table 8). To be noted: Staphylococcus aureus. In kind it is cell-based. The procedure: as §1
For the next data set, the system named is VRS12 (VRSA). Description: MIC/MBC S. aureus strains (Table 8). In kind it is cell-based. To be noted: Staphylococcus aureus, Table 8, VRS12 (VRSA). The procedure: as §2
The next data set concerns VRS10 (VRSA). In words: MIC/MBC S. aureus strains (Table 8). The class given is cell-based. To be noted: Staphylococcus aureus, Table 8, VRS10 (VRSA). The procedure:
as §2

For a further data set, the system named is MRSA (USA300). Description: Time-kill assay. In kind it is cell-based, Staphylococcus aureus. To be noted: 3.0×MIC; for bactericidal / bacteriostatic behaviour in time-kill assay, in words: MRSA; for time to completely eradicate the MRSA inoculum: t-butyl series. The procedure:
Aliquots (100 μL) were taken from each sample after 2, 4, 6, 8, 10, 12, and 24 hours, serially diluted in phosphate-buffered saline, and transferred to Trypticase soy agar (TSA) (Becton, Dickinson and Company, Sparks, Md., USA) plates. Plates were incubated at 37° C. for at least 16 hours before counting viable CFU/mL to determine the time required to reduce the bacterial cell count by 3-log10.

Where [9] appears, read: Staphylococcus aureus, Table 8, S. aureus NRS107.
[10] abbreviates: Table 7, initial screening, read-out: minimum inhibitory concentration (MIC).

As to `CNC(=C[N+](=O)[O-])NCCSCc1ccc(CN(C)C)o1` [Ranitidine, ranitidine, reference compound], the “Mean A→B Papp” value with Caco-2 cells stood at 0.2 ×10⁻⁶ cm/s.
Take `CCCCc1ccc(-c2nc(C)c(-c3ccnc(N)n3)s2)cc1` [Compound 8, 4-[2-(4-Butylphenyl)-4-methylthiazol-5-yl]pyrimidin-2-amine]: the melting point was determined as 159 °C. The “less soluble than the lead compound 1” value in data set [1] (2 h) is reported as 32%. The molecule further showed a solubility at 2 h in data set [1] (aqueous buffer, kinetic from dmso stock) of 42 µM (≈ 13.6 µg/mL). Also, the “Mean A→B Papp” value in the data set on Caco-2 cells was 14.9 ×10⁻⁶ cm/s. Also, in the data set on Caco-2 cells (Caco-2, basolateral to apical), the “Mean B→A Papp” value stood at 17 ×10⁻⁶ cm/s. Further, in the data set with Caco-2 cells (Papp (B→A)/Papp (A→B)), the Efflux ratio is 1.1. In addition, in the data set with MRSA (2658 RCMB) (Table 1, read-out: MIC ± SD), the MIC worked out at 3.12 ± 0.1 µg/mL (≈ 9.62 µM). Besides, the “MIC ± SD” value against MRSA (2658 RCMB) (Table 1) came to 3.12 ± 0.10 µg/mL (≈ 9.62 µM). Further, the microsomal CLint in data set [2] (NADPH omitted, read-out: NADPH-free Clint) is 0.5 µL/min/mg. Further, the half-life in [2] (NADPH omitted, read-out: NADPH-free t1/2) is over 1 h. In addition, in [2] (with NADPH, read-out: NADPH-dependent CLint), the microsomal CLint was in the range of 3 to 7.5 µL/min/mg. Further, the half-life in data set [2] (with NADPH, read-out: NADPH-dependent t1/2) stood at 3.25 h.
For the molecule `Cc1nc(-c2ccc(C(C)(C)C)cc2)sc1-c1ccnc(NC(=N)c2ccccn2)n1` [Compound 64, N-(4-(2-(4-(tert-Butyl)phenyl)-4-methylthiazol-5-yl)pyrimidin-2-yl) picolinimidamide], the MIC in data set [3] was found to be 4 µg/mL (≈ 9.33 µM); in the data set with S. aureus NRS107 (setting [9]), 64 µg/mL (≈ 149 µM); in data set [4], 64 µg/mL (≈ 149 µM); in [5] it was 8 µg/mL (≈ 18.7 µM); in data set [6] (ATCC19111, Table 9, Listeria monocytogenes ATCC 19111) it was 2 µg/mL (≈ 4.67 µM); in data set [7] it was 4 µg/mL (≈ 9.33 µM). The MIC was 64 µg/mL (≈ 149 µM) in data set [8]; 4 µg/mL (≈ 9.33 µM) with MRSA NRS385; 2 µg/mL (≈ 4.67 µM) in the data set with MRSA NRS123 (USA400); 2 µg/mL (≈ 4.67 µM) with S. aureus ATCC 6538; 4 µg/mL (≈ 9.33 µM) with MRSA NRS119; 4 µg/mL (≈ 9.33 µM) in the data set on MRSA NRS384 (USA300). Besides, the MIC against MRSA NRS386 turned out to be 2 µg/mL (≈ 4.67 µM); with VRS12 (VRSA) (read-out: MIC), 4 µg/mL (≈ 9.33 µM); in the data set with VRS10 (VRSA) (read-out: MIC) it was 2 µg/mL (≈ 4.67 µM); in the data set with MRSA (2658 RCMB) (setting [10]) it was 0.78 µg/mL (≈ 1.82 µM). Besides, the MBC was over 64 µg/mL with S. aureus NRS107 (setting [9]); over 64 µg/mL in [4] (read-out: MBC); 8 µg/mL (≈ 18.7 µM) in [5]; 4 µg/mL (≈ 9.33 µM) in data set [7]; over 64 µg/mL in data set [8]; 4 µg/mL (≈ 9.33 µM) in the data set on MRSA NRS385. The MBC against MRSA NRS123 (USA400) was 2 µg/mL (≈ 4.67 µM); in the data set on S. aureus ATCC 6538 it was 4 µg/mL (≈ 9.33 µM); in the data set on MRSA NRS119, 4 µg/mL (≈ 9.33 µM); against MRSA NRS384 (USA300), 4 µg/mL (≈ 9.33 µM); in the data set on MRSA NRS386, 2 µg/mL (≈ 4.67 µM); with VRS12 (VRSA) (read-out: MBC), 4 µg/mL (≈ 9.33 µM). The MBC in the data set on VRS10 (VRSA) (read-out: MBC) was found to be 4 µg/mL (≈ 9.33 µM). In addition, the “activity against S. aureus NRS107, in words” value in the data set with S. aureus NRS107 (text b117) was “inactive”. For the same molecule, the “MBC values relative to MIC values against L. monocytogenes” value in [6] (text b122) is given as “more than three-fold higher”. The “time to three-log10 reduction in the initial inoculum of MRSA” value in the data set on MRSA (USA300) is listed as “within six hours”. Besides, in the data set with MRSA (USA300), the “bactericidal / bacteriostatic behaviour in time-kill assay, in words” value is on record as “rapid bactericidal activity”. Also, the “time to completely eradicate the MRSA inoculum” value with MRSA (USA300) is at most 24 h.
Take `Cc1nc(-c2ccc(C(C)(C)C)cc2)sc1-c1ccnc(NC(=N)N2CCOCC2)n1` [Compound 61, N-(4-(2-(4-(tert-Butyl)phenyl)-4-methylthiazol-5-yl)pyrimidin-2-yl) morpholine-4-carboximidamide]: the MIC (in data set [3]; in [4]; in data set [8]; in the data set with MRSA NRS385; in the data set with S. aureus ATCC 6538; in the data set with MRSA NRS384 (USA300)) was 4 µg/mL (≈ 9.16 µM) each time. The MIC with MRSA (2658 RCMB) (setting [10]) is 1.17 µg/mL (≈ 2.68 µM). The same molecule showed an MBC in data set [8] of 4 µg/mL (≈ 9.16 µM). For the same molecule, in the data set on MRSA (USA300), the “bactericidal / bacteriostatic behaviour in time-kill assay, in words” value is “rapid bactericidal activity”. Further, the “time to completely eradicate the MRSA inoculum” value in the data set with MRSA (USA300) was “within two to four hours”.
